Reference: patent publication US8440460B2, “Methods for transdifferentiating cells” (The Board of Regents of the University of Texas System, priority 2005, dated 2013)
Values joined by “and” are separate entries in the source; they are usually repeats but may differ in a detail not shown here. Equal values may be shown once.

Assays:
[1] = tested on: normal human foreskin fibroblasts; conditions: FIG. 2 schedule, FACS day 6
[2] = tested on: normal bone marrow-derived CD45-negative MSCs; test: FACS analysis of endothelial markers CD133 and VEGFR-2 in treated bone marrow-derived CD45-negative MSCs; type: cell-based, human; conditions: five ng/mL 5-azacytidine days 1 and 4, 100 ng/mL EGF days 7 and 10; FACS day 13
Method: FIG. 9: Conversion of normal human bone marrow stroma to endothelial progenitor cells by 5-azacytidine and endothelial growth factor (EGF). Normal bone marrow-derived CD45-negative MSCs were used in this experiment and Five ng/mL of 5-azacytidine was added to culture on days 1 and 4, and 100 ng/mL EGF were added on days 7 and 10. The cultures were analyzed on day 13. The cells were stained with anti-CD133 APC and anti-VEGFR-2 PE antibodies and analyzed by FACS as described above. […] Note that the when treated with AZA+EGF 7.34% of MSC become CD133^+VEGFR-2^+.
In the next set of experiments the inventors determined whether fibroblasts could be reprogrammed to generate endothelial cells. […] Then, the cells were analyzed for the expression of two endothelial cell markers; the endothelial progenitor marker CD-133, as well as the expression of vascular endothelial growth factor-2 receptor (VEGFR-2).
In particular, normal bone marrow-derived CD45-negative mesenchymal cells (ie., bone marrow-derived fibroblastic cells) were used in this experiment and five ng/mL of 5-azacytidine was added to culture on days 1 and 4, and 100 ng/ml EGF were added on days 7 and 10. The cultures were analyzed on day 13. The cells were stained with anti-CD133 APC and anti-VEGFR-2 PE antibodies and analyzed by FACS as described above. […]

[3] = tested on: HS-5 fibroblast cell line; test: FACS analysis of hematopoietic cell surface markers (CD45, CD3, CD14, CD19) in treated HS-5 cells; type: cell-based, human; conditions: 5-azacytidine days 1 and 4, GM-CSF 50 ng/mL and SCF 50 ng/mL days 7 and 10 (FIG. 1 schedule), FACS day 13
Method: In these studies, HS-5 fibroblast cells were transferred to tissue culture flasks as described herein. 2.5 μg 5-azacytidine were added to the culture at days 1 and 4. Granulocyte macrophage colony-stimulating factor (GM-CSF; 50 ng/mL) and stem cell factor (SCF; 50 ng/mL) were added to the culture on days 7 and 10. The cells were harvested and analyzed for the presence of hematopoietic cell surface markets such as CD45 on day 13.
The human bone marrow stroma/MSC cell line HS-5 was obtained from ATCC. These fibroblast-like cells are plastic adherent and grow as a single layer in α-medium (GIBCO, Grand Island, N.Y.) supplemented with 10% fetal calf serum (FCS; Hyclone, Logan, Utah). […] When growth factors were added, α-medium was replaced with Iscove's modified Dulbecco's medium (IMDM; GIBCO).
For the HS-5 cultures, HS-5 fibroblast cells were transferred to tissue culture flasks as described. […] The cells were harvested and analyzed for the presence of hematopoietic cell surface markets such as CD45 on day 13.
In these studies, HS-5 cells were incubated with or without 5-azacytidine and/or growth factors according to the schedule described in FIG. 1. On day 13 the cells were harvested and analyzed for the presence of cell surface CD45 by FACS. All viable cells were analyzed and the CD45-corresponding isotypic control was used.

HS-5 cells [4] = test: Flow cytometry of 5-methylcytidine as a marker of global DNA methylation in HS-5 cells; type: cell-based, human; conditions: 5-azacytidine 2.5 uM overnight
Method: FIG. 3: Azacytidine hypomethylates HS-5 cells. […] HS-5 cells were treated w/ and w/o 5-azacytidine 2.5 uM overnight. After incubation the cells were harvested and washed in PBS. The cells were then fixed and permeabilized using the BD Cytofix/Cytoperm kit (BD Biosciences, San Diego Calif.) as per the kit instructions. After fixation and permeabilization the cells were stained using mouse anti 5-methylcytadine (Serotec Inc., Raleigh N.C.) for 30 minutes. After washing the cells 3 times in the Permwash buffer provided with the BD kit, the mouse antibody was then detected using an RPE labeled rabbit anti mouse IgG (Serotec) for 30 minutes. After 3 additional wash steps, the cells were resuspended in staining buffer (as per the BD kit) and analyzed on a FACSCaliber flow cytometer (BD Immunnocytometry Systems, La Jolla Calif.) for any decrease in 5-methylcytidine. […]
HS-5 cells were treated w/ and w/o 5-azacytidine 2.5 uM overnight. […] After washing the cells 3 times in the Permwash buffer provided with the BD kit, the mouse antibody was then detected using an RPE labeled rabbit anti mouse IgG (Serotec) for 30 minutes. After 3 additional wash steps, the cells were resuspended in staining buffer (as per the BD kit) and analyzed on a FACSCaliber flow cytometer (BD Immunnocytometry Systems, La Jolla Calif.) for any decrease in 5-methylcytidine. […]

HS-5 cells [5] = test: CFU-GM colony culture assay in methylcellulose; type: cell-based, human; conditions: 14 days
Method: FIG. 5: HS-5 cells transdifferentiate into hematopoietic colony-forming cells. Converted (see FIG. 1) and untreated HS-5 cells were harvested from the tissue culture flasks and culture in methylcellulose in a cl0nigtenic assay in the presence of 50 ng/mL GM-CSF, 50 ng/mL SCF and erythropoietin as described above. After 14 days the cultures were examined using an inverted microscope.
Colony-forming unit granulocyte-macrophage (CFU-GM) colony culture assay. The colony-forming unit-granulocyte-macrophage (CFU-GM) clonogenic assay was performed as previously described (49). Briefly, 2×10^5 treated and untreated cells were cultured in 0.8% methylcellulose in IMDM (GIBCO) supplemented with 10% FCS, and 50 ng/ml recombinant human granulocyte-macrophage colony-stimulating factor. […] All cultures were evaluated after 14 days for the number of CFU-GM colonies, defined as a cluster of more than 50 cells containing granulocytes, monocytes and macrophages. To identify the cells comprising the CFU-GM colonies, single colonies were microaspirated at random, transferred to glass slides, dried and stained with Write's stain and microscopically analyzed.
Converted (see FIG. 1) and untreated HS-5 cells were harvested from the tissue culture flasks and culture in methylcellulose in a cl0nigtenic assay in the presence of 50 ng/mL GM-CSF, 50 ng/mL SCF and erythropoietin as described above. […]

[6] = tested on: normal bone marrow stroma (MSC) CD45-negative cells; test: FACS analysis of CD45 in treated CD45-negative normal bone marrow stroma cells (MSC); type: cell-based, human; conditions: FIG. 1 schedule
Method: Human bone marrow stroma cells were grown from the bone marrow of healthy individuals as described above. When the cultures matured and formed homogenous layers of fibroblast-looking cells (termed mesenchymal stem cells; MSC), the cells were trypsinized and analyzed by fluorescence activated cell scanner/sorter (FACS; above) for the presence of the cell surface marker CD45. When the adherent fibroblast-like MSC became CD45-negative, the cells were harvested and transferred to another tissue flask (day 1 of culture).
Generation of Bone Marrow Stroma Cell Cultures. […] The culture medium and floating cells were completely aspirated and replaced with fresh tissue culture medium. Upon confluence, cells were exposed to 0.05% trypsin and 0.53 mM EDTA (GIBCO) at 37° C. for 10 min. Following incubation, FCS (v/v) was added for 5 min., the cells were removed from the tissue culture flasks, washed in PBS, transferred to new tissue culture flasks at a low density, and incubated with fresh tissue culture media. The cells were expanded and tested until all hematopoietic elements were no more present and all cells were CD45-negative.
For the normal marrow stoma cultures, human bone marrow stroma cells were grown from the bone marrow of healthy individuals as described above. When the cultures had matured and formed homogenous layers of fibroblast-looking cells, the cells were trypsinized and analyzed by fluorescence activated cell scanner/sorter (FACS; above) for the presence of the cell surface marker CD45. When the adherent fibroblast-like cells became CD45-negative, the cells were harvested and transferred to another tissue flask (day 1 of culture).

Row | Molecule | conversion into CD45-positive cells (in words) [1] | lateral/forward scatter analysis of the cell population [1] | CD133+VEGFR-2+ cells [2] [%] | cells expressing CD45 [3] | effect on 5-methylcytidine (DNA methylation) (HS-5 cells [4]) | microscopic evaluation of the colonies (HS-5 cells [5]) | CD45 expression (in words) ([6]; FACS day 13) | CD45 expression (in words) ([6]; FACS day 13, listed as 5-Azacytidine) | CD45 expression (in words) ([6]; FACS day 13, listed as 5-azcytidine)
1 | Nc1ncn([C@@H]2O[C@H](CO)[C@@H](O)[C@H]2O)c(=O)n1 [5-azacytidine] | converted them into CD45-positive cells | generates a new transdifferentiated (“differentiated”) population of cells | 4.14 | 3.5% and 11% | hypomethylates | characteristics of mixed granulocyte macrophage lineage | slightly increased | unable to give rise to a significant number of blood cells | remained CD45-negative
2 | EGF: epidermal growth factor | – | – | < 1.5 | – | – | – | – | – | –
